Laboratory results taken from patent US9539260B2, “Dihydro-benzo-oxazine and dihydro-pyrido-oxazine derivatives” (Novartis AG, priority 2012, dated 2017).
One block for each compound: values may come before it.

Key:
[1] = target: myristoylated catalytic subunit of human PI3K delta in Rat-1 cells (Homo sapiens (Human), UniProt O00329); assay: PI3K-mediated Akt 1/2 (S473) phosphorylation in Rat-1 cells, PI3K delta; format: cell-based; details: Rat-1 cells overexpressing myristoylated human PI3K delta; p-Akt (S473) AlphaScreen SureFire; read-out: Cell PI3Kδ/ IC50
Procedure: 2.1 Phosphoinositide-3 Kinase (PI3K)-Mediated Akt 1/2 (S473) Phosphorylation in Rat-1 Cells
Rat-1 cells stably overexpressing a myristoylated form of the catalytic subunit of human phosphoinositide-3 kinase (PI3K) alpha, beta or delta were plated in 384-well plates at a density of 7500 (PI3K alpha), 6200 (PI3K beta), or 4000 (PI3K delta) cells in 30 ul complete growth medium (Dulbecco's modified Eagle's medium (DMEM high glucose) supplemented with 10% (v/v) fetal bovine serum, 1% (v/v) MEM non essential amino acids, 10 mM HEPES, 2 mM L-glutamine, 10 μg/mL puromycin and 1% (v/v) Penicillin/Streptomycin) and were incubated at […]/5% CO2/95% humidity for 24 h. Compounds were diluted in 384-well compound plates to obtain 8-point serial dilutions for 40 test compounds in 90% DMSO, as well as 4 reference compounds plus 16 high controls and 16 low (inhibited) controls. Predilution plates were prepared by dispensing pipetting 250 nl of compound solutions into 384-well polypropylen plates using a Hummingwell nanoliter dispensor. Compounds were prediluted by the addition of 49.75 ul complete growth medium. 10 ul of prediluted compound solution were transferred to the cell plate using a 384-well pipettor, resulting in a final DMSO concentration of 0.11%.
Cells were incubated for 1 h at […]/5% CO2/95% humidity. The supernatant was removed, the cells were lysed in 20 ul of lysis buffer for AlphaScreen® SureFire® detection.
For detection of p-AKT(Ser473), the SureFire® p-Akt 1/2 (Ser473) Assay Kit (PerkinElmer, U.S.A) was used. 5 ul of cell lysate was transferred to 384-well low volume Proxiplates for detection using a 384-well pipettor. Addition of AlphaScreen® SureFire® reagents was done according to the manufacturer's protocol. First, 5 ul of reaction buffer plus activation buffer mix containing AlphaScreen® acceptor beads was added, the plate was sealed, and incubated on a plate shaker for 2 hours at room temperature. Second, 2 ul of dilution buffer containing AlphaScreen® donor beads was added, and the plate was incubated on plate shaker as above for a further 2 hours. The plate was read on an AlphaScreen® compatible plate reader, using standard AlphaScreen® settings.

[2] = target: PI3K alpha (Homo sapiens (Human), UniProt P42336); assay: Enzymatic PI3K alpha isoform inhibition (lipid kinase activity, Kinase-Glo luminescence); format: biochemical; details: Enzymatic assay
Procedure, shortened: (§1)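 IC50s derive from 4-parameter logistic fits of % inhibition across 8 concentrations (usually 10 to 0.003 μM). Lipid kinase reaction: PI3K (10 nM) plus phosphatidylinositol (5 μg/mL) started with 2 μM ATP, stopped near 50% ATP depletion; leftover ATP quantified by Kinase-Glo luminescence.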

[3] = target: PI3K delta (Homo sapiens (Human), UniProt O00329); assay: Enzymatic PI3K delta isoform inhibition (lipid kinase activity, Kinase-Glo luminescence); format: biochemical; details: Enzymatic assay
Procedure, shortened: as §1

[4] = tested on: rat B cells derived from whole blood; assay: Determination of rat B cell activation in whole blood (CD86 upregulation after anti-IgM and rIL-4); format: cell-based; details: anti-IgM + rIL-4 stimulation, CD86 on CD45RA+ B cells, read-out: RWB/IC50 CD86
Procedure: 2.3 Determination of Rat B Cell Activation
PI3Kδ has been recognized to modulate B cell function when cells are stimulated through the B cell receptor (BCR) (Okkenhaug et al. Science 297:1031 (2002). For assessing the inhibitory property of compounds on B cell activation, the upregulation of activation markers CD86 on rat B cells derived from whole blood is measured after stimulation with anti-IgM and recombinant IL-4. The CD86 molecule (also known as B7-2) is primarily expressed on antigen-presenting cells, including B cells. Resting B cells express CD86 at low levels, but upregulate it following stimulation of e.g. the BCR or IL-4 receptor. CD86 on a B cell interacts with CD28 on T cells. This interaction is required for optimal T cell activation and for the generation of an optimal IgG1 response (Carreno et al. Annu Rev Immunol. 20:29 (2002)).
Whole blood was collected from the abdominal aorta adult male Lewis rats (LEW/HanHsd) oby using a 10 ml syringe with hypodermic needle pre-coated with sodium heparin. Blood was transferred into 50 ml Falcon tubes and the anticoagulant concentration was adjusted to 100 U/ml.
For assessment of the in vitro effects of immunosuppressive drugs, heparinized blood was prediluted to 50% with medium. As medium served DMEM high glucose (Animed cat#1-26F01-I) supplemented with 100 U/ml penicillin, […], 2 mM L-glutamin, 50 mg/ml dextran 40 and 5% fetal calf serum (FCS, Fetaclone I, Gibco #10270-106). Then, 190 μl prediluted blood was spiked with 10 μl of pre-diluted test compound in 96 well U-bottomed microtiter plates (Nunc) resulting in a 3-fold serial dilution with a concentration range from 20 to 0.0003 μM. Control wells were pretreated with DMSO to obtain a final concentration of 0.5% DMSO. Cultures were set up in duplicates, mixed well by agitation on a plate shaker (Heidolph Titramax 101; 30 sec, speed 900), pipetting up and down and agitated on the plate shaker again. Cultures were incubated at 37° C., 5% CO2 for 1 hr. Then, 20 μl of polyclonal goat anti-rat IgM Ab (Serotec, cat#302001) and 10 μl of diluted recombinant rIL-4 (Immunotools #340085) were added to obtain final concentrations of 30 μg/ml and 5 ng/ml, respectively. Plates were mixed by agitation on a plate shaker as above and incubated for 24 hrs at 37° C., 5% CO2.
After incubation, 15 μl of a 25 mM EDTA solution was added per well and shaken for 15 min to detach adherent cells. For analysis of surface activation markers, samples were then stained with PE-Cy5-labeled anti-ratCD45RA (BD cat#557015) to allow gating on B cells in FACS analysis. In addition, samples were stained with PE-labeled anti-rat CD86 (BD cat#551396). All staining procedures were performed at rt for 30 min in the dark. After incubation, samples were transferred to 96-deep well V-bottomed microtiter plates (Corning #396096) containing 2 ml/well of BD Lysing Solution (BD #349202). After lysis of erythrocytes samples were washed with 2 ml of CellWASH (BD #349524). Data was acquired on an LSRII or FACScalibur flow cytometer (BD Biosciences) using Cellquest Plus or DIVA (version 6.1.1) software, respectively. Lymphocytes were gated in the FSC/SSC dot blot according to size and granularity and further analyzed for expression of CD45RA and activation markers. Data were calculated from dot blots or histograms as percentage of cells positively stained for activation markers within the CD45RA+ population.
The percentage inhibition of B cell activation after exposure to drug was calculated by the following formula: […]
ORIGIN 7 software (OriginLab Corporation, Northampton, Mass.) was used for non-linear regression curve fitting.

Sequence of PI3K alpha (P42336 other isoform, or with tags, fused parts or gaps): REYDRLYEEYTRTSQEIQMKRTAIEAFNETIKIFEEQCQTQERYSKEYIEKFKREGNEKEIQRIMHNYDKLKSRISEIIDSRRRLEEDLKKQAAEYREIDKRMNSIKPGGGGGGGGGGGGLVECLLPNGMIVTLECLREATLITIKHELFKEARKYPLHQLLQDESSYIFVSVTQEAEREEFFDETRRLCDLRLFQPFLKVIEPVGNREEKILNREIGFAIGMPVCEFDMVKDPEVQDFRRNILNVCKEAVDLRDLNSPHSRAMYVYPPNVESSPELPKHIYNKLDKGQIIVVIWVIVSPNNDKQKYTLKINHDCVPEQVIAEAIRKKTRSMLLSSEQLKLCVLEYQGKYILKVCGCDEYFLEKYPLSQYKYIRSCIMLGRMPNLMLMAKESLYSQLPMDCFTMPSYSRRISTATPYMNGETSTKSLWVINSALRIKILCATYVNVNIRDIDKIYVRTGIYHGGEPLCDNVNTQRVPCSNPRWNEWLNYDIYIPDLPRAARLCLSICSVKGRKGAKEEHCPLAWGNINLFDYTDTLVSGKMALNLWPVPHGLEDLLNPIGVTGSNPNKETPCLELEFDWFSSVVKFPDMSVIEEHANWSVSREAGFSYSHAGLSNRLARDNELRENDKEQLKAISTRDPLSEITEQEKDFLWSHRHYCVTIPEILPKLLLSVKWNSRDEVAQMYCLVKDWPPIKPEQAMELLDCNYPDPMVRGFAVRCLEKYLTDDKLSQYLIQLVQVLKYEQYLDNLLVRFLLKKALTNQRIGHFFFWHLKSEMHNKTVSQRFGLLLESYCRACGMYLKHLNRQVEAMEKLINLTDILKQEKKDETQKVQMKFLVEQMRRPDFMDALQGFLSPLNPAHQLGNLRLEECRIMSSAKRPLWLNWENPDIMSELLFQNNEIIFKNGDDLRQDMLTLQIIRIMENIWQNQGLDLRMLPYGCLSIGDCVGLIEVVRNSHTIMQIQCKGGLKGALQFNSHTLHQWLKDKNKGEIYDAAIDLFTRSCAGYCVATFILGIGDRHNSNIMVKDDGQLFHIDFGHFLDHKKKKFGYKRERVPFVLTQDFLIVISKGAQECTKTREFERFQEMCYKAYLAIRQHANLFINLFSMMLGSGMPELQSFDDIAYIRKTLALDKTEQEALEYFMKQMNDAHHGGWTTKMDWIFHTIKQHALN
Sequence of myristoylated catalytic subunit of human PI3K delta in Rat-1 cells (O00329 whole entry): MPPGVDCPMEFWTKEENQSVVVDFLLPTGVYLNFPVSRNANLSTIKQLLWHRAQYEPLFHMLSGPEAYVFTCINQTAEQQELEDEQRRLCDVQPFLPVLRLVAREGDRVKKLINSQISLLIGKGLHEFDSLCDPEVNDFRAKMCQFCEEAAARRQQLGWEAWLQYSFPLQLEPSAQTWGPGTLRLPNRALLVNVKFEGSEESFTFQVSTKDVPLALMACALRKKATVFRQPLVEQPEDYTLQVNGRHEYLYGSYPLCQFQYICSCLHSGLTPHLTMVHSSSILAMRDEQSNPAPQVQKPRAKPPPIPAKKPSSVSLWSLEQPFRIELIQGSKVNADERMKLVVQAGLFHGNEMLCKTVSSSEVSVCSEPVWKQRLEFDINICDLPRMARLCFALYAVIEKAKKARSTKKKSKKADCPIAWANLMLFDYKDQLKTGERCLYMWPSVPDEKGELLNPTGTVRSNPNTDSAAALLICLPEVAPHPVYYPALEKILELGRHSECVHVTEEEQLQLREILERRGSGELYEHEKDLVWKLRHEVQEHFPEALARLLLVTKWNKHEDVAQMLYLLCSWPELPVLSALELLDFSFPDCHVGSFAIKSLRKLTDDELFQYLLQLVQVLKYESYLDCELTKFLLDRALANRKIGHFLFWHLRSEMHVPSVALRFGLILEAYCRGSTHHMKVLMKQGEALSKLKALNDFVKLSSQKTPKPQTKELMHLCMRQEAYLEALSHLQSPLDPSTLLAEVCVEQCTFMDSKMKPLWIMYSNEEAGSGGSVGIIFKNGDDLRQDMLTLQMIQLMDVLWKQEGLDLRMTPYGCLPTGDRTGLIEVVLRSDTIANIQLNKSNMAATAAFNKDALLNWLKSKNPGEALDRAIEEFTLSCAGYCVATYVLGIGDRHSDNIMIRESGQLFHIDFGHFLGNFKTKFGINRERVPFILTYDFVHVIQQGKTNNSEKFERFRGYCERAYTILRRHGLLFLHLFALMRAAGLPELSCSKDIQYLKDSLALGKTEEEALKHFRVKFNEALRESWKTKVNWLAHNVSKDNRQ
Sequence of PI3K delta (O00329 other isoform, or with tags, fused parts or gaps linker GGGGGG): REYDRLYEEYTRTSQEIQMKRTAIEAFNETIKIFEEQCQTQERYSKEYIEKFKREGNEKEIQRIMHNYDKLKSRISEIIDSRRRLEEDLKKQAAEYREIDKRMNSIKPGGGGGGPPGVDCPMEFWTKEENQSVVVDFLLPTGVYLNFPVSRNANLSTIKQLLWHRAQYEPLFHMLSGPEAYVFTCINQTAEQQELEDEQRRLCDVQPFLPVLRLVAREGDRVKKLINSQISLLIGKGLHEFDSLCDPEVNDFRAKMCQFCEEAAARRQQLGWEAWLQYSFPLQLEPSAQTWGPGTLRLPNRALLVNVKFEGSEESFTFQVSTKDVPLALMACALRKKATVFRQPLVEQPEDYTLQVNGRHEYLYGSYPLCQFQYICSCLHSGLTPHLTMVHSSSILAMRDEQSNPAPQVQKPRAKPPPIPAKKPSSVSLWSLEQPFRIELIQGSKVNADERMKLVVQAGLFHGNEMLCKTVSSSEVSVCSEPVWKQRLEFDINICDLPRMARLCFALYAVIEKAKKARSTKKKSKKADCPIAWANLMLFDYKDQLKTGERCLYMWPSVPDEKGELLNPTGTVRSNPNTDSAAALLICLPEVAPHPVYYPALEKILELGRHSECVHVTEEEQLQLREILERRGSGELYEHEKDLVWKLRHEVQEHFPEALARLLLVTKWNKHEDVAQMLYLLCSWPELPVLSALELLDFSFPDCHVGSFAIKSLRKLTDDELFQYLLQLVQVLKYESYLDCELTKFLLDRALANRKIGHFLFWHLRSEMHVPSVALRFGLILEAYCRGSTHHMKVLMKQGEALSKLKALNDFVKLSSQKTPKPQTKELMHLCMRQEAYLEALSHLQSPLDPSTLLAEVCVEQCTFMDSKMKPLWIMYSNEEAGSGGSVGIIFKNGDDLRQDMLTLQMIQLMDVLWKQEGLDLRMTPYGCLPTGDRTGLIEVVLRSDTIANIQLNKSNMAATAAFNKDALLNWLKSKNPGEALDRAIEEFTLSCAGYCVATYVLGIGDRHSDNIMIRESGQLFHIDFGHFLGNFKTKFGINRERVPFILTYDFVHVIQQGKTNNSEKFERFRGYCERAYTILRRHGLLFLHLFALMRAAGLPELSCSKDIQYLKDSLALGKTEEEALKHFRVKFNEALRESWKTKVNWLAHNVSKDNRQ

IC50 [1]: 154 nM
IC50 [2]: 390 nM
IC50 [3]: 14 nM
IC50 [4]: 29 nM
Compound: Cc1cc(N2CCOc3ccc(O[C@H]4CCN(C(=O)C5CCOCC5)C4)cc32)cnc1S(C)(=O)=O [Example B1, {(S)-3-[4-(6-Methanesulfonyl-5-methyl-pyridin-3-yl)-3,4-dihydro-2H-benzo[1,4]oxazin-6-yloxy]-pyrrolidin-1-yl}-(tetrahydro-pyran-4-yl)-methanone]

IC50 [1]: 147 nM
IC50 [3]: 5 nM
IC50 [4]: 84 nM
Compound: COc1ncc(N2CCOc3ccc(O[C@H]4CCN(C(=O)c5cn(C)cn5)C4)cc32)cc1C#N [Example D1, (S)-2-methoxy-5-(6-((1-(1-methyl-1H-imidazole-4-carbonyl)pyrrolidin-3-yl)oxy)-2H-benzo[b][1,4]oxazin-4(3H)-yl)nicotinonitrile]

IC50 [4]: 7 nM
Compound: COc1ncc(N2CCOc3cnc(O[C@H]4CCN(C(=O)C5CCS(=O)(=O)CC5)C4)cc32)cc1C [Example F1, (1,1-Dioxo-hexahydro-1lambda*6*-thiopyran-4-yl)-{(S)-3-[1-(6-methoxy-5-methyl-pyridin-3-yl)-2,3-dihydro-1H-pyrido[3,4-b][1,4]oxazin-7-yloxy]-pyrrolidin-1-yl}-methanone]

IC50 [1]: 50 nM
IC50 [2]: 337 nM
IC50 [3]: 6 nM
Compound: COc1ncc(N2CCOc3cnc(O[C@H]4CCN(C(=O)c5cn(C)cn5)C4)cc32)cc1F [Example F3, {(S)-3-[1-(5-Fluoro-6-methoxy-pyridin-3-yl)-2,3-dihydro-1H-pyrido[3,4-b][1,4]oxazin-7-yloxy]-pyrrolidin-1-yl}-(1-methyl-1H-imidazol-4-yl)-methanone]

Second part, the compound before the results:

Compound: [2H]C1([2H])COc2ccc(O[C@H]3CCN(C(=O)C4CCOCC4)C3)cc2N1c1cnc(OC)c(C)c1 (single isomer, unassigned) [Q]
IC50 [1]: 145 nM
IC50 [2]: 1140 nM
IC50 [3]: 14 nM
IC50 [4]: 37 nM

Compound: COc1ncc(N2CCOc3ccc(O[C@H]4CCN(C(=O)C5CCOCC5)C4)cc32)cc1C [Example A1, (S)-(3-((4-(6-methoxy-5-methylpyridin-3-yl)-3,4-dihydro-2H-benzo[b][1,4]oxazin-6-yl)oxy)pyrrolidin-1-yl)(tetrahydro-2H-pyran-4-yl)methanone]
IC50 [1]: 43 nM
IC50 [2]: 322 nM
IC50 [3]: 6 nM
IC50 [4]: 37 nM

Compound: Cc1cc(N2CCOc3ccc(O[C@H]4CCN(c5ncccn5)C4)cc32)cnc1S(C)(=O)=O [N, 4-(6-Methanesulfonyl-5-methyl-pyridin-3-yl)-6-((S)-1-pyrimidin-2-yl-pyrrolidin-3-yloxy)-3,4-dihydro-2H-benzo[1,4]oxazine]
IC50 [2]: 838 nM
IC50 [3]: 12 nM

Compound: COc1ncc(N2CCOc3ccc(O[C@H]4CCN(CC5CCN(C)CC5)C4)cc32)cc1C#N [P, 2-Methoxy-5-{6-[(S)-1-(1-methyl-piperidin-4-ylmethyl)-pyrrolidin-3-yloxy]-2,3-dihydro-benzo[1,4]oxazin-4-yl}-nicotinonitrile]
IC50 [2]: 954 nM
IC50 [3]: 72 nM

Compound: COc1ncc(N2CCOc3ccc(O[C@H]4CCN(C(=O)[C@H]5CC[C@H](O)CC5)C4)cc32)cc1C#N [R, 5-{6-[(S)-1-(4-Hydroxy-cyclohexanecarbonyl)-pyrrolidin-3-yloxy]-2,3-dihydro-benzo[1,4]oxazin-4-yl}-2-methoxy-nicotinonitrile]
IC50 [2]: 602 nM
IC50 [3]: 11 nM

Compound: COc1ncc(N2CCOc3ccc(O[C@H]4CCN(C(=O)Cc5ccncc5)C4)cc32)cc1C#N [S, 2-Methoxy-5-{6-[(S)-1-(2-pyridin-4-yl-acetyl)-pyrrolidin-3-yloxy]-2,3-dihydro-benzo[1,4]oxazin-4-yl}-nicotinonitrile]
IC50 [2]: 612 nM
IC50 [3]: 36 nM

Compound: COc1ncc(N2CCOc3ccc(O[C@H]4CCN(C(=O)c5cn(C)cn5)C4)cc32)cc1N [T, {(S)-3-[4-(5-Amino-6-methoxy-pyridin-3-yl)-3,4-dihydro-2H-benzo[1,4]oxazin-6-yloxy]-pyrrolidin-1-yl}-(1-methyl-1H-imidazol-4-yl)-methanone]
IC50 [2]: 1880 nM
IC50 [3]: 76 nM

Compound: COc1ncc(N2CCOc3ccc(O[C@H]4CCN(C(=O)c5cn(C)cn5)C4)cc32)cc1NS(C)(=O)=O [U, N-(2-Methoxy-5-{6-[(S)-1-(1-methyl-1H-imidazole-4-carbonyl)-pyrrolidin-3-yloxy]-2,3-dihydro-benzo[1,4]oxazin-4-yl}-pyridin-3-yl)-methanesulfonamide]
IC50 [2]: 192 nM
IC50 [3]: 15 nM

Compound: COc1ncc(N2CCOc3ccc(O[C@H]4CCN(C(=O)C5CCS(=O)(=O)CC5)C4)c(C)c32)cc1C [V, (1,1-Dioxo-hexahydro-1lambda*6*-thiopyran-4-yl)-{(S)-3-[4-(6-methoxy-5-methyl-pyridin-3-yl)-5-methyl-3,4-dihydro-2H-benzo[1,4]oxazin-6-yloxy]-pyrrolidin-1-yl}-methanone]
IC50 [2]: 3200 nM
IC50 [3]: 79 nM

Compound: Cc1cc(N2CCOc3ccc(O[C@H]4CCN(C(=O)C5CCOCC5)C4)c(C)c32)cnc1S(C)(=O)=O [W, {(S)-3-[4-(6-Methanesulfonyl-5-methyl-pyridin-3-yl)-5-methyl-3,4-dihydro-2H-benzo[1,4]oxazin-6-yloxy]-pyrrolidin-1-yl}-(tetrahydro-pyran-4-yl)-methanone]
IC50 [2]: 2980 nM
IC50 [3]: 56 nM

Compound: COc1ncc(N2CCOc3ccc(O[C@H]4CCN(C(=O)C5CCS(=O)(=O)CC5)C4)c(C)c32)cc1C(F)F [X, {(S)-3-[4-(5-Difluoromethyl-6-methoxy-pyridin-3-yl)-5-methyl-3,4-dihydro-2H-benzo[1,4]oxazin-6-yloxy]-pyrrolidin-1-yl}-(1,1-dioxo-hexahydro-1lambda*6*-thiopyran-4-yl)-methanone]
IC50 [2]: 3580 nM
IC50 [3]: 61 nM
